Laboratory results taken from US9572788B2, “Cell permeable inhibitors of anaphase promoting complex” (President and Fellows of Harvard College, priority 2014, dated 2017).

Columns and labels:
[1] = target: APC (Xenopus laevis, UniProt A0A1L8ESF3); experiment: Cyclin B1-luciferase reporter degradation (luciferase assay) in mitotic Xenopus egg extract; assay type: biochemical; conditions: mitotic Xenopus extract
Method: The extract was incubated at room temperature and 3 μL samples were taken at 0, 20, 40 and 60 min.

[2] = test system: Xenopus APC; experiment: ^3H-TAME binding assay in interphase extract; conditions: 200 nM ^3H-TAME
From the text: The beads were washed quickly twice with XB high salt and twice with XB.

[3] = test system: U2OS-H2B-GFP cells; experiment: Fluorescence live cell imaging with survival (Cox) analysis, U2OS; assay type: cell-based, human; conditions: proTAME 12 μM
Method: Mitotic duration and cell fate were determined by manual inspection of the movies and plotted as Kaplan-Meier curves. The hatch marks on the Kaplan-Meier curved indicate mitotic duration endpoints of censored cells. Includes the combined results of five independent experiments. […] Pairwise comparison between proTAME and proTAME+apcin-M tested using a Cox proportional hazards model stratified by date, using data from only the experimental blocks in which both proTAME and proTAME+apcin were tested.
Movies were manually analyzed using Nikon Elements software or Image J.
Plates were inserted into a covered chamber supplied with humidified 5% CO2 and mounted onto a motorized microscope stage (Prior Scientific). […] A Hamamatsu ORCA cooled CCD camera collected the images with 2×2 binning using Nikon Elements software (version 3.0). Movies were manually analyzed using Nikon Elements software or ImageJ. Mitotic duration was defined as the time from nuclear envelope breakdown until anaphase, in the case of normal mitosis, or until exit from prolonged mitosis as indicated by cytoplasmic blebbing accompanied by changes in chromatin as detected by H2B-GFP.
The Cox proportional hazards model is a semiparameteric approach to modeling time-to-event data, in which covariates are assumed to have constant proportional effects over time relative to a baseline hazard function that can take any form. In this case, stratification on “person” (the individual who analyzed the movie) and “date” (the date the assay was run) allow the baseline hazard function to differ across experimental blocks, but assume a fixed effect of treatment across experimental blocks. The model is thus: hi(t|Z=j)=hj(t)exp(β1×apcini+β2×apcinMi+β3×proTAMEi+β4×proTAMEi:apcinMi+β5×proTAMEi:apcini), j=1 . . . […] This model was fit separately to cells treated with control siRNA or Mad2 siRNA. All statistical analysis was carried out in R 3.0.0 using the functions available as part of the survival package.

[4] = test system: RPE1-H2B-GFP cells; experiment: Fluorescence live cell imaging with survival (Cox) analysis, RPE1; assay type: cell-based, human; conditions: proTAME 6 μM; for % rate of mitotic exit: relative to DMSO control, Cox model, apcin/apcin-M 25 μM; for Median mitotic duration: apcin or apcin-M 25 μM
Method: RPE1-H2B-GFP or U2OS-H2B-GFP cells were plated in 24-well glass-bottom plates 18-24 hours prior to siRNA transfection using RNAiMax (Invitrogen). After treatment with compound(s), DIC and GFP images were captured at 6-minute intervals for 45 hours. Movies were manually analyzed using Nikon Elements software or Image J.
RPE1-H2B-GFP or U2OS-H2B-GFP cells were plated in 24-well glass-bottom plates (Greiner BioOne, 662892) 18-24 hours prior to siRNA transfection using RNAiMax (Invitrogen). Plates were inserted into a covered chamber supplied with humidified 5% CO2 and mounted onto a motorized microscope stage (Prior Scientific). DIC and FITC images were captured at 6 minute intervals for 45 hours using a Nikon Ti inverted fluorescence microscope fitted with a 37° C. enclosed incubation chamber and using a 20× Plan Apo 0.75 NA objective lens. A Hamamatsu ORCA cooled CCD camera collected the images with 2×2 binning using Nikon Elements software (version 3.0). Movies were manually analyzed using Nikon Elements software or ImageJ. Mitotic duration was defined as the time from nuclear envelope breakdown until anaphase, in the case of normal mitosis, or until exit from prolonged mitosis as indicated by cytoplasmic blebbing accompanied by changes in chromatin as detected by H2B-GFP.
In order to detect differences in mitotic duration among cells in the live-cell imaging screen, a stratified Cox proportional hazards model (Cox, D. R. Regression models and life tables. J Royal Statistics Soc B34, 187-220, (1972)) was fit to censored mitotic duration times (where cells that are not observed exiting mitosis or dying in mitosis are censored at the last known time in mitosis). The Cox proportional hazards model is a semiparameteric approach to modeling time-to-event data, in which covariates are assumed to have constant proportional effects over time relative to a baseline hazard function that can take any form. In this case, stratification on “person” (the individual who analyzed the movie) and “date” (the date the assay was run) allow the baseline hazard function to differ across experimental blocks, but assume a fixed effect of treatment across experimental blocks. The model is thus: hi(t|Z=j)=hj(t)exp(β1×apcini+β2×apcinMi+β3×proTAMEi+β4×proTAMEi:apcinMi+β5×proTAMEi:apcini), j=1 . . . 4 where hi(t) is the hazard function of cell i at time t, hj(t) is the baseline hazard for strata j (with 4 levels, one for each person and date combination), apcini, proTAMEi, and apcinMi are indicator variables for presence or absence of the compounds apcin, proTAME, and apcin-M, respectively in cell i, proTAMEi:apcini is an indicator variable that is 1 if both proTAME and apcin are present in cell i, and 0 otherwise, and proTAMEi:apcinMi is a similar indicator variable for proTAME+apcin-M. In this model, […] represent the effects of apcin, apcin-M, and proTAME alone, while β4 and β5 represent the additional non-additive effect of the compounds beyond what is predicted from the combination of effects of the two compounds alone. This model was fit separately to cells treated with control siRNA or Mad2 siRNA. All statistical analysis was carried out in R 3.0.0 using the functions available as part of the survival package.
In this model, the β coefficients represent the log hazard ratios for exiting mitosis between treated and untreated cells. However, for ease of interpretation the β coefficients are exponentiated to convert them to normal hazard ratios, and then multiplied by 100 to convert to percentages relative to DMSO. These hazard ratios, which are referred to as mitotic exit rate, represent the relative probability that a treated cell in mitosis at time t will exit mitosis in the next time interval compared to an untreated cell.
For ease of interpretation, the treatment effects are presented relative to DMSO for all individual compounds and compound combinations. […]

[5] = target: APC/C-Cdc20 (Xenopus laevis, UniProt Q6DFD4); experiment: Kinetics of APC/C-Cdc20-dependent ubiquitination of cyclin B1 N-terminal fragment; assay type: biochemical; conditions: methylated ubiquitin
Method: Measurements of kinetics of ubiquitination were performed using an N-terminal fragment of cyclin B1 and APC/C isolated from Xenopus extract, exactly as previously described (Zeng, X. & King, R. W. Nat Chem Biol 8, 383-392, (2012)).
Kinetic analysis of APC^Cdc20 reactions. Endogenous APC^Cdc20 was isolated from Xenopus extract as described above. The ubiquitination mixture was prepared as described in Cdc20 ubiquitination assay with the exception that 60 μM methylated ubiquitin was used in place of WT ubiquitin. CycB-NT was diluted into the mixture to final concentrations of 1 μM, 500 nM, 250 nM, 125 nM and 62.5 nM prior to the reaction. For each reaction, 2.5 μl beads were mixed with 20 μl ubiquitination mixture and left on a shaker at RT for 30 seconds. The reaction was stopped by adding 7 μl hot 4×LDS sample buffer (Invitrogen NP0007)+[…]. Band intensity of the mono-, di-, and tri-ubiquitinated cycB-NT was quantitated with Image J and fitted to a hyperbolic equation by nonlinear regression.

[6] = test system: APC/C; experiment: ^35S-labeled substrate degradation in mitotic Xenopus egg extract; assay type: biochemical; conditions: 200 μM
Method: Mitotic extracts were pretreated with DMSO or compounds for 10 min. Substrates were expressed and ^35S-methionine labeled using the TNT system from Promega and added to the extract at 10% final volume.
Substrates consisted of human full length cyclin B1, cyclin A2, securin, Nek2A, or an N-terminal fragment of human cyclin B1 (residues 1-88). Each substrate was amplified with primers by PCR to allow T7-dependent transcription of the PCR product. Substrates were expressed and labeled with ^35S-methionine (Perkin Elmer NEG709A500UC) using the TNT system from Promega. […] The in vitro-translation reaction was then added to the mitotic Xenopus extract at 10% final volume. Extracts were then incubated at 24° C., with shaking at 1250 rpm, with samples taken at indicated times. Reactions were quenched with SDS sample buffer and processed for SDS-PAGE and phosphoimaging (Bio-Rad PMI) and quantification was performed using Quantity One software (Bio-Rad).
A 35S-labeled cyclin B1 protein was expressed in reticulocyte lysate, and a 10% volume of this material was added to mitotically arrested Xenopus egg extract, in the presence of DMSO or different concentrations of inhibitors. Aliquots were taken at 0 and 20 minutes, and samples separated by SDS-PAGE and radioactivity measured by quantitative phosphorimager analysis.

Chain of APC (A0A1L8ESF3 entry or part of it): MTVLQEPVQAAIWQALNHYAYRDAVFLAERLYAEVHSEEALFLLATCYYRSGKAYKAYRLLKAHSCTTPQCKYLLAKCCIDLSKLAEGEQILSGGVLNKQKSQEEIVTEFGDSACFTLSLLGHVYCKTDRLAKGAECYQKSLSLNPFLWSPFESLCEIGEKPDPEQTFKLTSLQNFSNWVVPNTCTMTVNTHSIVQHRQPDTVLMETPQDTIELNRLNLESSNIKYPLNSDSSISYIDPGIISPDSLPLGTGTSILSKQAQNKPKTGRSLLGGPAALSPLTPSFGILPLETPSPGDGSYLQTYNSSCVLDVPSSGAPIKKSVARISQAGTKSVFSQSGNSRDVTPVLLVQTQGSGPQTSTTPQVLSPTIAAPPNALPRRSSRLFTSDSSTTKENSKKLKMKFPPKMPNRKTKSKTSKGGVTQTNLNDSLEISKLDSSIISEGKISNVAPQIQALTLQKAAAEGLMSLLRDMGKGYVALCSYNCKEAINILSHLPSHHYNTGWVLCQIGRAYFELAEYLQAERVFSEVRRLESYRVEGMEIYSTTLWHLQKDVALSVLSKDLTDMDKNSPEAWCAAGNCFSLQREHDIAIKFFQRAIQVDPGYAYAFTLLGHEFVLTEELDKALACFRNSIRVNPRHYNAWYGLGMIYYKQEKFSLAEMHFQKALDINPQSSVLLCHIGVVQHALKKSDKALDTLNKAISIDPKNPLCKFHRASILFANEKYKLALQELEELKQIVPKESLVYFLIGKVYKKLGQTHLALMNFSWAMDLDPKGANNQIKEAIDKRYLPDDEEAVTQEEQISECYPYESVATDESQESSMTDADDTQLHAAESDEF
Chain of APC (Q6DFD4 entry or part of it, further chain): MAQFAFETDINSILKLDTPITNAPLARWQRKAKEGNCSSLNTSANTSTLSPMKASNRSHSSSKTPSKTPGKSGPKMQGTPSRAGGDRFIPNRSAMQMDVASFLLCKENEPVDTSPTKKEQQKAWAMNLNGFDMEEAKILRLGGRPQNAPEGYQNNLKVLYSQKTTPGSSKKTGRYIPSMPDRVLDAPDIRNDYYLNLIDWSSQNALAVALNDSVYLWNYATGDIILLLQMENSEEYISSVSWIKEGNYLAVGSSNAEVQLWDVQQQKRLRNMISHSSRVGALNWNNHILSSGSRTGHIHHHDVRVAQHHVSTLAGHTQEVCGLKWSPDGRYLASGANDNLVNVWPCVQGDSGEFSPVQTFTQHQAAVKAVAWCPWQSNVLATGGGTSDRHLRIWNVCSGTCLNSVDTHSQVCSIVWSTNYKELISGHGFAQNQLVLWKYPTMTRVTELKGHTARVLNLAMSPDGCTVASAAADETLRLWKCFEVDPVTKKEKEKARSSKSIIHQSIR

## COC(=O)[C@H](CCCNC(=N)N)NC(C)=O [AAME, Acetyl-L-Arginine Methyl Ester]
[1]
  Inhibition of cyclin B-luciferase proteolysis: showed only low activity
[2]
  Competition with ^3H-TAME for binding to Xenopus APC: did not

## Cc1ncc([N+](=O)[O-])n1CCOC(=O)NC(Nc1ncccn1)C(Cl)(Cl)Cl (stereo not shown) [apcin]
[3]; Table 7, apcin or apcin-M 25 μM
  Median mitotic duration: 24
[3]; relative to DMSO control, Cox model, apcin/apcin-M 25 μM
  % rate of mitotic exit: 109.64%
[4]; Mad2 siRNA
  % rate of mitotic exit: 57.38%
[4]; Table 3, control siRNA
  Median mitotic duration: 24
[4]; Table 3, mad2 siRNA
  Median mitotic duration: 19
[4]; control siRNA
  % rate of mitotic exit: 82.87%
[5]
  Effect on Km and kcat of APC-dependent ubiquitination: caused a significant increase (p=0.0039) in the Km (Ki=23 μM) of the reaction but no reduction in kcat

## NCCCOC(=O)NC(Nc1ncccn1)C(Cl)(Cl)Cl (stereo not shown) [apcin-A]
[6]
  Activity on proteolysis of N-terminal ^35S-labeled fragment of cyclin B1 relative to apcin: reduced activity
